According to PMC11137182, “Selective and brain-penetrant ACSS2 inhibitors target breast cancer brain metastatic cells” (Frontiers in Pharmacology, 2024):

Tested on: MDA-MB-231BR cells
Assay: Intracranial MDA-MB-231BR tumor model in vivo
Design: species or system Nu/Nu mice
Procedure: Intracranial injections were performed as previously described ([Ciraku et al., 2021]). Briefly, Nu/Nu or BalbC female 4–6 week old mice from Charles River Laboratories (Wilmington, MA, United States) were immobilized using the Just for Mice ™ Stereotaxic Frame (Harvard Apparatus, Holliston, MA, United States) and injected intracranially with 5 μL of a 20,000 cells/μL solution of MDA-MB-231BR or 4T1BR cells stably expressing luciferase. Mice were injected intraperitoneally with 30 mg/kg of Dluciferin solution (Caliper Life Sciences, Hopkinton, MA) and results analyzed using Living Image software (Caliper Life Sciences, Waltham, MA, United States). For in vivo analog trials, mice were weighed daily and injected intraperitoneally with 50 mg/kg of AD-8007. Mice were euthanized 3 weeks after injection following survivial or at the end of drug treatment at indiciated day. The animal study was reviewed and approved by the Institutional Animal Care and Use Committee.
Brains were dissected, fixed in 4% formalin and prepared for processing/sectioning/embedding/blocking to generate paraffin embedded slides. The slides containing brain metastatic tumors were deparaffinized by Xylene and subsequent rehydration was done by decreasing concentrations of ethanol-water mixture. Antigen retrieval was done by citrate buffer immersion and steaming the slides for 45 min. Tissue was treated with 200–400 ul 1% BSA+5% serum PBS solution for 1h. Primary incubation was done at 4 °C overnight using primary antibody anti-FasN (Cell Signaling Technologies, C20G5). Secondary antibody incubation was done for an hour at RT with HRP conjugated Anti-Rabbit Secondary antibody (Cell Signaling Technologies). at 1:100 dilution. For IHC the stain was developed using the DAB kit by Vectastain (Vector Labs, Burlingame, CA, United States). Finally, slides were mounted and imaged under a light microscope. H&E and Ki-67 staining were performed and assessed at TJU, Department of Pathology, Philadelphia, PA by board-certified pathologist.

## N[C@H](C(=O)N1CCCC(c2ccccc2)(c2ccccc2)C1)C1CC1 [AD-8007]
MDA-MB-231BR intracranial, 50 mg/kg daily, 14 days
  tumor burden (bioluminescence): significantly reduced tumor burden
MDA-MB-231BR intracranial, 14 days post treatment
  tumor burden and proliferation via H&E and Ki67 staining: reduction in tumor burden and proliferation
MDA-MB-231BR intracranial, drug withdrawn after treatment, Kaplan Meyer
  survival: significantly extended surivial
MDA-MB-231BR tumors, 14 days treatment, IHC
  FASN staining in tumors: reduced expression of FASN staining
Immunodeficient mice, 50 mg/kg daily, 14 days
  body weight: did not cause significant weight lost
